Results from PubChem BioAssay AID1963431 (Molecular Pharmacology Branch, DTP, NCI, 2024).

System: Rh18 complex spheroid viability, percent test/control
Test: Anticancer human tumor Rh18 cell line growth inhibition [Asc];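 further: spheroids exposed to compound for 7 days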;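 on viability, T/C: 100% = DMSO vehicle control wells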
Conditions: for IC50: curve of first compound; for viability, T/C: stronger effect = lower value
Procedure, shortened: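 Tumor cells were grown as complex spheroids with human endothelial cells (HUVEC) and human mesenchymal stem cells as stroma. Agents were tested alone and in combination, in half-log steps down from the clinical Cmax, or from 10 microM where Cmax was unknown.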

With `C#Cc1c(F)ccc2cc(O)cc(-c3ncc4c(N5CC6CCC(C5)N6)nc(OCC56CCCN5CC(F)C6)nc4c3F)c12` (stereo not given) + Cc1c(S(C)(=O)=O)c(-c2cc(F)cc(N3CCN(c4ccc(NS(=O)(=O)c5ccc(NC(CCN6CCC(C(=O)OCCCP(=O)(O)O)CC6)CSc6ccccc6)c(S(=O)(=O)C(F)(F)F)c5)cc4)CC3)c2)c(-c2ccc(Cl)cc2)n1C(C)C the IC50 (second compound 0.1 µM) was less than 31.6 nM, the IC50 (second compound 0.316 µM) was less than 31.6 nM and the IC50 (second compound 1 µM) was less than 31.6 nM. For the same molecule, the IC50 (second compound 3.16 µM) was less than 31.6 nM, the IC50 (second compound 10 µM) was less than 31.6 nM and the viability, T/C (second compound 0.1 µM, first compound 0.0316 µM) was 14.1%. The viability, T/C (second compound 0.1 µM, first compound 0.1 µM) was 10.3%, the viability, T/C (second compound 0.1 µM, first compound 0.316 µM) was 12.1% and the viability, T/C (second compound 0.1 µM, first compound 1 µM) was 13%. For the same molecule, the viability, T/C (second compound 0.1 µM, first compound 3.16 µM) was 15.7%, the viability, T/C (second compound 0.1 µM, first compound 10 µM) was 15.8% and the viability, T/C (second compound 0.316 µM, first compound 0.0316 µM) was 11%. For the same molecule, the viability, T/C (second compound 0.316 µM, first compound 0.1 µM) was 10.6%, the viability, T/C (second compound 0.316 µM, first compound 0.316 µM) was 10.8% and the viability, T/C (second compound 0.316 µM, first compound 1 µM) was 8.98%. It also gave a viability, T/C (second compound 0.316 µM, first compound 3.16 µM) of 10.4%, a viability, T/C (second compound 0.316 µM, first compound 10 µM) of 12.9% and a viability, T/C (second compound 1 µM, first compound 0.0316 µM) of 8.64%. It also gave a viability, T/C (second compound 1 µM, first compound 0.1 µM) of 7.73%, a viability, T/C (second compound 1 µM, first compound 0.316 µM) of 8.18% and a viability, T/C (second compound 1 µM, first compound 1 µM) of 9.23%. For the same molecule, the viability, T/C (second compound 1 µM, first compound 3.16 µM) was 8.77%, the viability, T/C (second compound 1 µM, first compound 10 µM) was 8.2% and the viability, T/C (second compound 3.16 µM, first compound 0.0316 µM) was 6.12%. For the same molecule, the viability, T/C (second compound 3.16 µM, first compound 0.1 µM) was 6.59%, the viability, T/C (second compound 3.16 µM, first compound 0.316 µM) was 5.52% and the viability, T/C (second compound 3.16 µM, first compound 1 µM) was 4.57%. It also gave a viability, T/C (second compound 3.16 µM, first compound 3.16 µM) of 5.64%, a viability, T/C (second compound 3.16 µM, first compound 10 µM) of 6.94% and a viability, T/C (second compound 10 µM, first compound 0.0316 µM) of 5.81%. It also gave a viability, T/C (second compound 10 µM, first compound 0.1 µM) of 5.32%, a viability, T/C (second compound 10 µM, first compound 0.316 µM) of 2.97% and a viability, T/C (second compound 10 µM, first compound 1 µM) of 3.66%. It also gave a viability, T/C (second compound 10 µM, first compound 3.16 µM) of 2.62% and a viability, T/C (second compound 10 µM, first compound 10 µM) of 4.15%.
`Cc1nc(N2CCC3(CC2)COC(C)C3N)c(CO)nc1Sc1ccnc(N)c1Cl` (stereo not given) + Cc1c(S(C)(=O)=O)c(-c2cc(F)cc(N3CCN(c4ccc(NS(=O)(=O)c5ccc(NC(CCN6CCC(C(=O)OCCCP(=O)(O)O)CC6)CSc6ccccc6)c(S(=O)(=O)C(F)(F)F)c5)cc4)CC3)c2)c(-c2ccc(Cl)cc2)n1C(C)C showed an IC50 (second compound 0.1 µM) of less than 9.49 nM, an IC50 (second compound 0.316 µM) of less than 9.49 nM and an IC50 (second compound 1 µM) of less than 9.49 nM. It also gave an IC50 (second compound 3.16 µM) of less than 9.49 nM, an IC50 (second compound 10 µM) of less than 9.49 nM and a viability, T/C (second compound 0.1 µM, first compound 0.00949 µM) of 11.9%. It also gave a viability, T/C (second compound 0.1 µM, first compound 0.03 µM) of 11.6%, a viability, T/C (second compound 0.1 µM, first compound 0.0949 µM) of 11.1% and a viability, T/C (second compound 0.1 µM, first compound 0.3 µM) of 7.3%. It also gave a viability, T/C (second compound 0.1 µM, first compound 0.949 µM) of 7.66%, a viability, T/C (second compound 0.1 µM, first compound 3 µM) of 5.44% and a viability, T/C (second compound 0.316 µM, first compound 0.00949 µM) of 8.93%. The viability, T/C (second compound 0.316 µM, first compound 0.03 µM) was 9.76%, the viability, T/C (second compound 0.316 µM, first compound 0.0949 µM) was 7.87% and the viability, T/C (second compound 0.316 µM, first compound 0.3 µM) was 5.11%. The viability, T/C (second compound 0.316 µM, first compound 0.949 µM) was 5.06%, the viability, T/C (second compound 0.316 µM, first compound 3 µM) was 4.22% and the viability, T/C (second compound 1 µM, first compound 0.00949 µM) was 7.05%. It also gave a viability, T/C (second compound 1 µM, first compound 0.03 µM) of 7.01%, a viability, T/C (second compound 1 µM, first compound 0.0949 µM) of 6.81% and a viability, T/C (second compound 1 µM, first compound 0.3 µM) of 4.44%. The viability, T/C (second compound 1 µM, first compound 0.949 µM) was 4.09%, the viability, T/C (second compound 1 µM, first compound 3 µM) was 2.1% and the viability, T/C (second compound 3.16 µM, first compound 0.00949 µM) was 4.29%. It also gave a viability, T/C (second compound 3.16 µM, first compound 0.03 µM) of 6.13%, a viability, T/C (second compound 3.16 µM, first compound 0.0949 µM) of 4.92% and a viability, T/C (second compound 3.16 µM, first compound 0.3 µM) of 3.71%. The viability, T/C (second compound 3.16 µM, first compound 0.949 µM) was 2.47%, the viability, T/C (second compound 3.16 µM, first compound 3 µM) was 2.4% and the viability, T/C (second compound 10 µM, first compound 0.00949 µM) was 4.54%. For the same molecule, the viability, T/C (second compound 10 µM, first compound 0.03 µM) was 4.83%, the viability, T/C (second compound 10 µM, first compound 0.0949 µM) was 3.89% and the viability, T/C (second compound 10 µM, first compound 0.3 µM) was 3.77%. It also gave a viability, T/C (second compound 10 µM, first compound 0.949 µM) of 2.82% and a viability, T/C (second compound 10 µM, first compound 3 µM) of 1.96%.
